How the values were obtained:
[1] = test system: COLO 205; test: NCI SRB screening; assay type: cell-based, human; settings: COLO 205, 10 μM
[2] = test system: M14; test: NCI SRB screening; assay type: cell-based; settings: M14, 10 μM
[3] = test system: MDA-MB-435; test: NCI SRB screening; assay type: cell-based; settings: MDA-MB-435, 10 μM
[4] = test system: A549/ATCC; settings: 10 μM
[5] = test system: EKVX; settings: 10 μM
[6] = test system: NCI-H23; settings: NCI-H23, 10 μM
[7] = test system: NCI-H522; settings: NCI-H522, 10 μM
[8] = test system: HCT-116; settings: HCT-116, 10 μM
[9] = test system: HT29; settings: HT29, 10 μM
[10] = test system: KM12; settings: KM12, 10 μM
[11] = test system: SF-268; settings: SF-268, 10 μM
[12] = test system: SF-295; settings: SF-295, 10 μM
[13] = test system: SK-MEL-28; settings: SK-MEL-28, 10 μM
[14] = test system: SK-MEL-5; settings: SK-MEL-5, 10 μM
[15] = test system: IGROV1; settings: IGROV1, 10 μM
[16] = test system: OVCAR-5; settings: OVCAR-5, 10 μM
[17] = test system: SN12C; settings: 10 μM
[18] = test system: DU-145; settings: DU-145, 10 μM
[19] = test system: MDA-MB-468; settings: MDA-MB-468, 10 μM

SMILES: CCCn1cc(/C=N/N=C2\C(=O)Nc3ccc(OC(F)(F)F)cc32)c2ccccc21 [Compound 8b]
- GI % [1]: – (Only GI % higher than 10% are shown)
- GI % [2]: – (Only GI % higher than 10% are shown)
- GI % [3]: – (Only GI % higher than 10% are shown)
- GI % [4]: 28%
- GI % [5]: 40%
- GI % [6]: 12%
- GI % [7]: 19%
- GI % [8]: 21%
- GI % [9]: 25%
- GI % [10]: – (Only GI % higher than 10% are shown)
- GI % [11]: – (Only GI % higher than 10% are shown)
- GI % [12]: – (Only GI % higher than 10% are shown)
- GI % [13]: – (Only GI % higher than 10% are shown)
- GI % [14]: – (Only GI % higher than 10% are shown)
- GI % [15]: – (Only GI % higher than 10% are shown)
- GI % [16]: – (Only GI % higher than 10% are shown)
- GI % [17]: – (Only GI % higher than 10% are shown)
- GI % [18]: 13%
- GI % [19]: 11%

SMILES: CCCn1cc(C=NN=C2C(=O)Nc3ccc([N+](=O)[O-])cc32)c2ccccc21 [Compound 8c]
- GI % [1]: – (Only GI % higher than 10% are shown)
- GI % [2]: – (Only GI % higher than 10% are shown)
- GI % [3]: – (Only GI % higher than 10% are shown)
- GI % [4]: 13%
- GI % [5]: – (Only GI % higher than 10% are shown)
- GI % [6]: – (Only GI % higher than 10% are shown)
- GI % [7]: – (Only GI % higher than 10% are shown)
- GI % [8]: 20%
- GI % [9]: – (Only GI % higher than 10% are shown)
- GI % [10]: 11%
- GI % [11]: – (Only GI % higher than 10% are shown)
- GI % [12]: – (Only GI % higher than 10% are shown)
- GI % [13]: – (Only GI % higher than 10% are shown)
- GI % [14]: – (Only GI % higher than 10% are shown)
- GI % [15]: – (Only GI % higher than 10% are shown)
- GI % [16]: – (Only GI % higher than 10% are shown)
- GI % [17]: – (Only GI % higher than 10% are shown)
- GI % [18]: – (Only GI % higher than 10% are shown)
- GI % [19]: 17%

SMILES: CC(C)n1cc(C=NN=C2C(=O)Nc3ccccc32)c2ccccc21 [Compound 9]
- GI % [1]: – (Only GI % higher than 10% are shown)
- GI % [2]: – (Only GI % higher than 10% are shown)
- GI % [3]: – (Only GI % higher than 10% are shown)
- GI % [4]: – (Only GI % higher than 10% are shown)
- GI % [5]: 38%
- GI % [6]: – (Only GI % higher than 10% are shown)
- GI % [7]: 10%
- GI % [8]: – (Only GI % higher than 10% are shown)
- GI % [9]: – (Only GI % higher than 10% are shown)
- GI % [10]: – (Only GI % higher than 10% are shown)
- GI % [11]: – (Only GI % higher than 10% are shown)
- GI % [12]: – (Only GI % higher than 10% are shown)
- GI % [13]: – (Only GI % higher than 10% are shown)
- GI % [14]: – (Only GI % higher than 10% are shown)
- GI % [15]: – (Only GI % higher than 10% are shown)
- GI % [16]: – (Only GI % higher than 10% are shown)
- GI % [17]: – (Only GI % higher than 10% are shown)
- GI % [18]: – (Only GI % higher than 10% are shown)
- GI % [19]: – (Only GI % higher than 10% are shown)

SMILES: C=CCn1cc(C=NN=C2C(=O)Nc3ccccc32)c2ccccc21 [Compound 10a]
- GI % [1]: 30%
- GI % [2]: 12%
- GI % [3]: – (Only GI % higher than 10% are shown)
- GI % [4]: – (Only GI % higher than 10% are shown)
- GI % [5]: – (Only GI % higher than 10% are shown)
- GI % [6]: 12%
- GI % [7]: 31%
- GI % [8]: 24%
- GI % [9]: 10%
- GI % [10]: – (Only GI % higher than 10% are shown)
- GI % [11]: – (Only GI % higher than 10% are shown)
- GI % [12]: – (Only GI % higher than 10% are shown)
- GI % [13]: – (Only GI % higher than 10% are shown)
- GI % [14]: – (Only GI % higher than 10% are shown)
- GI % [15]: 28%
- GI % [16]: – (Only GI % higher than 10% are shown)
- GI % [17]: – (Only GI % higher than 10% are shown)
- GI % [18]: – (Only GI % higher than 10% are shown)
- GI % [19]: 20%

SMILES: C=CCn1cc(C=NN=C2C(=O)Nc3c(F)cccc32)c2ccccc21 [Compound 10c]
- GI % [1]: – (Only GI % higher than 10% are shown)
- GI % [2]: – (Only GI % higher than 10% are shown)
- GI % [3]: – (Only GI % higher than 10% are shown)
- GI % [4]: – (Only GI % higher than 10% are shown)
- GI % [5]: 15%
- GI % [6]: – (Only GI % higher than 10% are shown)
- GI % [7]: 34%
- GI % [8]: 28%
- GI % [9]: – (Only GI % higher than 10% are shown)
- GI % [10]: – (Only GI % higher than 10% are shown)
- GI % [11]: – (Only GI % higher than 10% are shown)
- GI % [12]: – (Only GI % higher than 10% are shown)
- GI % [13]: – (Only GI % higher than 10% are shown)
- GI % [14]: – (Only GI % higher than 10% are shown)
- GI % [15]: 31%
- GI % [16]: – (Only GI % higher than 10% are shown)
- GI % [17]: – (Only GI % higher than 10% are shown)
- GI % [18]: – (Only GI % higher than 10% are shown)
- GI % [19]: 54%

SMILES: C=CCn1cc(C=NN=C2C(=O)Nc3ccc(Cl)cc32)c2ccccc21 [Compound 10d]
- GI % [1]: – (Only GI % higher than 10% are shown)
- GI % [2]: – (Only GI % higher than 10% are shown)
- GI % [3]: – (Only GI % higher than 10% are shown)
- GI % [4]: – (Only GI % higher than 10% are shown)
- GI % [5]: 33%
- GI % [6]: – (Only GI % higher than 10% are shown)
- GI % [7]: 17%
- GI % [8]: – (Only GI % higher than 10% are shown)
- GI % [9]: – (Only GI % higher than 10% are shown)
- GI % [10]: – (Only GI % higher than 10% are shown)
- GI % [11]: – (Only GI % higher than 10% are shown)
- GI % [12]: – (Only GI % higher than 10% are shown)
- GI % [13]: – (Only GI % higher than 10% are shown)
- GI % [14]: – (Only GI % higher than 10% are shown)
- GI % [15]: 23%
- GI % [16]: – (Only GI % higher than 10% are shown)
- GI % [17]: – (Only GI % higher than 10% are shown)
- GI % [18]: – (Only GI % higher than 10% are shown)
- GI % [19]: 36%

From publication PMC7717600, “Novel [(N-alkyl-3-indolylmethylene)hydrazono]oxindoles arrest cell cycle and induce cell apoptosis by inhibiting CDK2 and Bcl-2: synthesis, biological evaluation and in silico studies” (Journal of Enzyme Inhibition and Medicinal Chemistry, 2020)
